Where a name gives a salt, the structure may show the parent alone.

The assay deals with BALB/c mice. Put plainly: LPS-induced shock model: survival and signs of endotoxemia after lethal LPS challenge. The assay is classed as in vivo. Conditions: for survival after lethal LPS challenge: mouse, in vivo, hydrochloride. As for the experimental part: Male BALB/c mice were injected with 11, 33 or 100 mg/kg of bupropion or with placebo i.p. in saline 1 h before challenge with 600 μg of E. coli LPS (Sigma, St. Louis, Mo.) by i.p. route. Mice were sacrificed 90 min for detection of cytokines in the serum by sandwich ELISA. Values represent the means±SEM of 5 mice per group. * P<0.05.
BALB/c mice were injected intraperitoneally (i.p.) with bupropion or placebo 1 h prior to i.p. injection of LPS (600 ug/mouse).
Male, 6 weeks old BALB/c mice were used in LPS-induced shock experiments. All mice were raised and maintained at the animal facilities at the Goncalo Moniz Research Center-FIOCRUZ, and provided with rodent diet and water ad libitum. Animal numbers in experimental groups were the minimum necessary to permit statistical analysis. All animals were sacrificed under anaesthesia.
In some experiments, groups of mice received i.p. injection of propranolol (1 mg/Kg), SCH23390 (25 μg/kg) and sulpiride (25 mg/Kg) 1 h prior to injection of bupropion. […] To determine serum TNF, IL-1 beta and IL-10 levels, mice were sacrificed 90 min after injection of LPS and bled by axilar vein puncture. Levels of IFN-gamma and nitric oxide were assayed using sera of mice sacrificed 4 h after LPS injection. Platelet and leukocyte cell counts were performed using blood collected with EDTA after 4 h of LPS challenge, using an automated cell counter (ADVIA 60, Bayer).

`CC(NC(C)(C)C)C(=O)c1cccc(Cl)c1` (racemic) [bupropion, (.±.)-1-(3-chlorophenyl)-2-[(1,1-dimethylethyl)amino]-1-propanone hydrochloride]: the “survival after lethal LPS challenge” value is on record as “protects mice”. Under “bupropion 100 mg/kg, compared with placebo”, the “signs of endotoxemia (diarrhea, immobility, lethargy, piloerection, shivering)” value is recorded as “milder or absent”. In addition, the “survival after lethal LPS challenge” value (listed as bupropion hydrochloride) is “increased survival rates”. Besides, under “listed as buproprion”, the “survival after lethal LPS challenge” value is on record as “significantly increased the survival time”.

These data come from US20060173080A1, “Methods of modulating TNF using bupropion” (The Regents of the University of California, priority 2002, published 2006).
